Source: patent publication US20210113492A1, “METHOD FOR INHIBITING PROLIFERATION AND METASTASIS OF CANCER CELLS BY USING NAPHTHOQUINONE DERIVATIVE” (National Tsing Hua University, priority 2019, published 2021)
Values after ≈ are worked out from the molar mass of the structure shown.

Experiments:
Format in all cases: cell-based
[1] = test system: oral squamous cell carcinoma cells (OC3-IV2); test: MTT survival assay, OC3-IV2; details: Homo sapiens, 48 h, read-out: IC50, survival rate
Protocol: According to the present invention, human oral cancer cell line OC3-IV2 cells (Lin S C et al, J Oral Pathol Med. 2004 February; 33(2):79-86 and Lu Y C et al, Cancer Prey Res (Phila). 2012 April; 5(4):665-74) were cultured in a 1:1 ratio of Dulbecco's modified Eagle medium (DMEM; Invitrogen) and keratinocyte serum-free medium (KSFM; Invitrogen) containing 10% fetal bovine serum (FBS; Invitrogen, Carlsbad, Calif., USA), 1% L-glutamine (L-Gln, Invitrogen) and 1% antibiotic-antimycotic (AA, Invitrogen). Cells were maintained in a humidified atmosphere containing 5% CO2 at 37° C., and the culture medium was replaced every 2 days.
Isoplumbagin (AKOS006277326, acquired from AKos GmbH, Steinen, Germany) was dissolved in dimethyl sulfoxide (DMSO) and added to the medium, so that the final concentration of DMSO was less than 0.1%. The survival rate of isoplumbagin on OC3-IV2, U87, H1299 and PC3 cell lines was determined using the 3-(4,5-dimethylthiazol-2-yl)-2,5-diphenyltetrazolium bromide (MTT; Sigma-Aldrich) assays. 3×10^3 cells/well were seeded in 96-well plates. After incubation for 24 h, cells were treated with isoplumbagin at various concentrations (0, 1, 5, 10, 25, 50 and 100 μM) and incubated for a further 48 h. At the end of treatment, 10 μL 5 mg/mL MTT was added to each well. […] The absorbance of dissolved formazan was measured at 550 nm wavelengths by a spectrophotometer. […]

[2] = test system: prostate cancer cells (PC3); test: MTT survival assay, PC3; details: Homo sapiens, 48 h, read-out: IC50, survival rate
Protocol: According to the present invention, human prostate cancer cell line PC3 cells were obtained from ATCC (ATCC® ^CRL-1435™) and maintained in DMEM medium supplemented with 10% FBS, 1% L-Gln and 1% AA. Cells were maintained in an atmosphere containing 5% CO2 at 37° C., and the culture medium was replaced every 2 days.
(§1) Isoplumbagin (AKOS006277326, acquired from AKos GmbH, Steinen, Germany) was dissolved in dimethyl sulfoxide (DMSO) and added to the medium, so that the final concentration of DMSO was less than 0.1%. The survival rate of isoplumbagin on OC3-IV2, U87, H1299 and PC3 cell lines was determined using the 3-(4,5-dimethylthiazol-2-yl)-2,5-diphenyltetrazolium bromide (MTT; Sigma-Aldrich) assays. 3×10^3 cells/well were seeded in 96-well plates. After incubation for 24 h, cells were treated with isoplumbagin at various concentrations (0, 1, 5, 10, 25, 50 and 100 μM) and incubated for a further 48 h. At the end of treatment, 10 μL 5 mg/mL MTT was added to each well. After incubation at 37° C. for 3 h, medium was removed and DMSO was added to each well to dissolve reduced MTT product formazan. The absorbance of dissolved formazan was measured at 550 nm wavelengths by a spectrophotometer. […]

[3] = test system: human prostate cancer cells (PC3); test: Boyden chamber invasion assay, PC3; details: 2.5, 5 and 10 μM, 24 h, dose dependency (FIG. 2D)
Protocol: Cells were harvested by […] and resuspended in a serum-free medium with 0.1% BSA. Then, […] of cell suspension (2×10^5 cells) was seeded into the upper insert of SPLInsert with Polyethylene terephthalate (PET) membrane (pore size: 8.0 μm) (SPL Lifesciences, Korea) pre-coated with matrigel (BD Biosciences, San Jose, Calif.). The bottom well of 24-well plate of SPLInsert was filled with cell medium containing 10% FBS with different concentrations of isoplumbagin (5, 7.5 and 10 μM, Experimental group of oral squamous cell carcinoma cells (OC3-IV2); 2.5, 5 and 10 μM, Experimental groups of human primary glioblastoma cells (U87), human non-small cell lung carcinoma cells (H1299), human prostate cancer cells (PC3) and human cervical cancer cells (Hela)) or without isoplumbagin (DMSO added). […] Number of cells was counted using Image J. Relative invasion ability was calculated as cell number per area.
FIGS. 2A-2E show the inhibitory effect of different doses of isoplumbagin on invasion for oral squamous cell carcinoma cells (OC3-IV2), human primary glioblastoma cells (U87), human non-small cell lung carcinoma cells (H1299), prostate cancer cells (PC3) and cervical cancer cells (Hela) assessed with the Boyden chamber assays. *Compared with solvent control (DMSO). […]

[4] = test system: human primary glioblastoma cells (U87); test: Mitochondrial morphology and distribution by immunofluorescence staining, U87; details: 1 μM or 2.5 μM, 24 hours, anti-TOM20 staining
Protocol: The effects of isoplumbagin on mitochondrial morphology and distribution of OC3-IV2, U87, H1299 and PC3 cell lines were measured by immunofluorescence staining After OC3-IV2, U87, H1299, and PC3 cells were treated with DMSO, 1 μM, or 2.5 μM isoplumbagin for 24 hours, cells were fixed by 4% (v/v) paraformaldehyde and permeabilized by 0.1% (v/v) Triton X-100. Cells were incubated in blocking buffer containing 1% bovine serum albumin. After blocking, cells were incubated overnight with indicated primary antibodies against TOM20 (a mitochondria marker, sc-11415, Santa Cruz), and then incubated with Alexa Fluor 488-conjugated secondary antibodies (A11001, Invitrogen). Nucleus was stained with DAPI, actin was stained with rhodamine phalloidin (A12379, Invitrogen) and cells were mounted using Prolong Gold reagent (P36930, Invitrogen). 63 images were taken by LSM800 confocal microscopes (Zeiss).
FIGS. 5A-5D show the effect of isoplumbagin on mitochondrial morphogenesis and distribution of oral squamous cell carcinoma cells (OC3-IV2), human primary glioblastoma cells (U87), human non-small cell lung carcinoma cells (H1299) and human prostate cancer cells (PC3). Cells treated with either solvent control (DMSO) or isoplumbagin were determined by immunofluorescence staining using anti-TOM20 (mitochondria, green) antibody, rhodamine phalloidin (actin, red) and DAPI (nucleus, blue). […]

[5] = test system: human primary glioblastoma cells (U87); test: MTT survival assay, U87; details: 48 h, read-out: IC50, survival rate
Protocol: According to the present invention, Human primary glioblastoma cell line U87 were obtained from the American Type Culture Collection (ATCC® HTB-14™, Manassas, Va., USA) and grown in DMEM medium supplemented with 10% FBS, 1% MEM Non-Essential Amino Acids Solution (Invitrogen) and 1% penicillin/streptomycin (Invitrogen). The incubator was maintained at 5% CO2 and a constant temperature of 37° C., and the culture medium was changed every two days.
as §1

CC1=CC(=O)c2cccc(O)c2C1=O [isoplumbagin, 5-hydroxy-3-methyl-1,4-naphthoquinone]
IC50 [1]: 1.02 mg/L (≈ 5.42 µM)
IC50 [2]: 1.13 mg/L (≈ 6 µM)
cancer cells migrating through the membrane (invasion) [3]: decrease significantly
mitochondrial morphogenesis and distribution [4]: can alter the mitochondrial morphogenesis and distribution
IC50 [5]: 0.45 mg/L (≈ 2.39 µM)
